Broadly, the pIC50 is the negative decadic logarithm of the IC50, by convention in mol/L. Low values mean a high IC50, high ones a low IC50.

The results in this text go back to patent US20240246967A1, “AXL COMPOUNDS” (ARCUS BIOSCIENCES, INC., priority 2021, published 2024).

pIC50: −log10 of the molar value.

For the experiment, the target named is T1, human TYRO3 (Homo sapiens, UniProt Q06418).
T1 construct: purchased Invitrogen
T1 sequence (Q06418 41-890): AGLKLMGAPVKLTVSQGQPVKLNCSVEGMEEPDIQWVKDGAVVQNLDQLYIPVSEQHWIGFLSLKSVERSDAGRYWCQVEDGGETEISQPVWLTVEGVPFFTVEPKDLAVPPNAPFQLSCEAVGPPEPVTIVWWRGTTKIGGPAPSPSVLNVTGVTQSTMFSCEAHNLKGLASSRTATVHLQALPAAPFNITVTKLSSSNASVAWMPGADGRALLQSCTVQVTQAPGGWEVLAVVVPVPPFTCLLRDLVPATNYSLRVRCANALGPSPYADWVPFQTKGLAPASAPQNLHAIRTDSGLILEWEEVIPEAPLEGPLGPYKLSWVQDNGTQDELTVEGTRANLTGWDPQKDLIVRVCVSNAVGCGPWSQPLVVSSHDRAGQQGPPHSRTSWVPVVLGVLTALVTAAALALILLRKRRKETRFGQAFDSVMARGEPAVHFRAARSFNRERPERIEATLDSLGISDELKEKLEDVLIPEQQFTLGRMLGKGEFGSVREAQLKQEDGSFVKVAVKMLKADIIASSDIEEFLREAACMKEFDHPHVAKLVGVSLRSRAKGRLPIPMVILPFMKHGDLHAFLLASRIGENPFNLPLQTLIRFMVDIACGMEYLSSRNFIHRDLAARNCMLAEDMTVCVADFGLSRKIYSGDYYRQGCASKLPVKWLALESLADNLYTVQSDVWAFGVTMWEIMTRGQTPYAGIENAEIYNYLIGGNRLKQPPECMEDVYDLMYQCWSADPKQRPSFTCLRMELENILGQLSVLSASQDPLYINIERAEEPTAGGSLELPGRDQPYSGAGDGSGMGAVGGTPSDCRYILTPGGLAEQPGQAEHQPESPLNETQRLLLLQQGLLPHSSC
Nature of the experiment: HTRF KinEASE-TK biochemical potency assay, TYRO3. Particulars: 1 nM TYRO3, 700 μM ATP, 800 nM TK Substrate-biotin. The protocol:
Purified recombinant human AXL, TYRO3 and MER proteins were purchased from Invitrogen™. 10 nM AXL, 2 nM TYRO3 or MER were incubated with varying concentrations of compounds in 50 mM HEPES, pH 7.4, 10 mM MgCl2, 0.01% BSA, 1 mM DTT and 2% DMSO in a total volume of 20 μl in a 384-well microplate (Corning™ #3640) at RT for 1 h. The AXL, TYRO3 and MER enzymatic reaction was initiated by transferring 10 μl of enzyme and compound mixture into 10 μl of 1.6 μM TK Substrate-biotin (HTRF® KinEASE-TK kit, Cisbio) and 1400 μM ATP pre-incubated in 50 mM HEPES, pH 7.4, 10 mM MgCl2, 0.01% BSA, 1 mM DTT in a 384-well microplate (Corning™ #3640) at RT, giving the final reaction conditions: 5 nM AXL, 1 nM TYRO3 or MER, 800 nM TK Substrate-biotin and 700 μM ATP in 50 mM HEPES, pH 7.4, 10 mM MgCl2, 0.01% BSA, 1 mM DTT and 1% DMSO with varying concentrations of compounds. Following 2 h incubation at RT, the AXL, TYRO3 and MER enzymatic reaction was stopped by transfer of 10 μl of reaction into 10 μl of detection mix (400 nM Streptavidin-XL665, 200-fold dilution TK Antibody-Cryptate and detection buffer, HTRF® KinEASE-TK kit, Cisbio) in a white 384-well microplate (Perkin Elmer, OptiPlate 384). After 1 h incubation at RT, the plate was put into a plate reader (Evision) to read at 665/620 nm (acceptor/donor) for HTRF. The value of the DMSO blank (MIN inhibition=100% activity) was used as a negative control. The positive control was established by adding 5 μl of enzyme and DMSO mixture into 10 μl of detection mix followed by addition of 5 μl of TK Substrate-biotin and ATP mixture (MAX inhibition=0% activity). To calculate the percent activity, Equation 1 was used. Ratio 665/620 is the value at a given compound concentration: […]
`CS(=O)(=O)c1ccc(-c2n[nH]c3ncc(-c4ccc5c(c4)CCN(C4CCCC4)CC5)cc23)cc1Cl` [Example 31, 7-(3-(3-Chloro-4-(methylsulfonyl)phenyl)-1H-pyrazolo[3,4-b]pyridin-5-yl)-3-cyclopentyl-2,3,4,5-tetrahydro-1H-benzo[d]azepine] had a pIC50 of more than 7.00.
Take `CS(=O)(=O)c1ccc(-c2n[nH]c3ncc(-c4ccc5c(c4)CCN(C4CCCC4)CC5)cc23)cc1F` [Example 32, 3-Cyclopentyl-7-(3-(3-fluoro-4-(methylsulfonyl)phenyl)-1H-pyrazolo[3,4-b]pyridin-5-yl)-2,3,4,5-tetrahydro-1H-benzo[d]azepine]: the pIC50 is 6.00 to 7.00.
With `COCCN1CCc2ccc(-c3cnc4[nH]nc(-c5ccc(C(C)(C)O)c(Cl)c5)c4c3)cc2CC1` [Example 34, 2-(2-Chloro-4-(5-(3-(2-methoxyethyl)-2,3,4,5-tetrahydro-1H-benzo[d]azepin-7-yl)-1H-pyrazolo[3,4-b]pyridin-3-yl)phenyl)propan-2-ol], the pIC50 is 6.00 to 7.00.
Under `C[C@@H]1CCCN1C1CCc2ccc(-c3cnc4[nH]nc(-c5ccc(C(C)(C)O)c(Cl)c5)c4c3)cc2CC1` (stereo partly drawn) [Example 35, 2-(2-Chloro-4-(5-(7-((R)-2-methylpyrrolidin-1-yl)-6,7,8,9-tetrahydro-5H-benzo[7]annulen-2-yl)-1H-pyrazolo[3,4-b]pyridin-3-yl)phenyl)propan-2-ol] stands 6.00 to 7.00; under `C[C@H]1CCCN1C1CCc2ccc(-c3cnc4[nH]nc(-c5ccc(S(C)(=O)=O)cc5)c4c3)cc2CC1` (stereo partly drawn) [Example 36, 5-(7-((S)-2-Methylpyrrolidin-1-yl)-6,7,8,9-tetrahydro-5H-benzo[7]annulen-2-yl)-3-(4-(methylsulfonyl)phenyl)-1H-pyrazolo[3,4-b]pyridine], more than 7.00; under `C[C@H]1CCCN1C1CCc2ccc(-c3cnc4[nH]nc(-c5ccc(C(C)(C)O)c(Cl)c5)c4c3)cc2CC1` (stereo partly drawn) [Example 37, 2-(2-Chloro-4-(5-(7-((S)-2-methylpyrrolidin-1-yl)-6,7,8,9-tetrahydro-5H-benzo[7]annulen-2-yl)-1H-pyrazolo[3,4-b]pyridin-3-yl)phenyl)propan-2-ol], 6.00 to 7.00.
Regarding `C[C@@H]1CCCN1C1CCc2ccc(-c3cnc4[nH]nc(-c5ccc(S(C)(=O)=O)cc5)c4c3)cc2CC1` (stereo partly drawn) [Example 38, 5-(7-((R)-2-Methylpyrrolidin-1-yl)-6,7,8,9-tetrahydro-5H-benzo[7]annulen-2-yl)-3-(4-(methylsulfonyl)phenyl)-1H-pyrazolo[3,4-b]pyridine], the pIC50 is more than 7.00.
`C[C@@H]1CCCN1C1CCc2ccc(-c3cnc4[nH]nc(-c5ccc(S(=O)(=O)C6CC6)cc5)c4c3)cc2CC1` (stereo partly drawn) [Example 39, 3-(4-(Cyclopropylsulfonyl)phenyl)-5-(7-((R)-2-methylpyrrolidin-1-yl)-6,7,8,9-tetrahydro-5H-benzo[7]annulen-2-yl)-1H-pyrazolo[3,4-b]pyridine] gave a pIC50 of 6.00 to 7.00.
Under `O=S(=O)(c1ccc(-c2n[nH]c3ncc(-c4ccc5c(c4)CC[C@@H](N4CCCC4)CC5)cc23)cc1)C1CC1` [Example 40, (S)-3-(4-(Cyclopropylsulfonyl)phenyl)-5-(7-(pyrrolidin-1-yl)-6,7,8,9-tetrahydro-5H-benzo[7]annulen-2-yl)-1H-pyrazolo[3,4-b]pyridine] stands more than 7.00; under `CCS(=O)(=O)c1ccc(-c2n[nH]c3ncc(-c4ccc5c(c4)CC[C@@H](N4CCCC4)CC5)cc23)cc1` [Example 41, (S)-3-(4-(Ethylsulfonyl)phenyl)-5-(7-(pyrrolidin-1-yl)-6,7,8,9-tetrahydro-5H-benzo[7]annulen-2-yl)-1H-pyrazolo[3,4-b]pyridine], more than 7.00; under `CC(C)S(=O)(=O)c1ccc(-c2n[nH]c3ncc(-c4ccc5c(c4)CC[C@@H](N4CCCC4)CC5)cc23)cc1` [Example 42, (S)-3-(4-(Isopropylsulfonyl)phenyl)-5-(7-(pyrrolidin-1-yl)-6,7,8,9-tetrahydro-5H-benzo[7]annulen-2-yl)-1H-pyrazolo[3,4-b]pyridine], more than 7.00.
Under `C[C@@H]1CCCN1C1(C)CCc2ccc(-c3cnc4[nH]nc(-c5ccc(S(=O)(=O)C6CCCC6)cc5)c4c3)cc2CC1` (stereo partly drawn) [Example 45, 3-(4-(Cyclopentylsulfonyl)phenyl)-5-(7-methyl-7-((R)-2-methylpyrrolidin-1-yl)-6,7,8,9-tetrahydro-5H-benzo[7]annulen-2-yl)-1H-pyrazolo[3,4-b]pyridine] stands 6.00 to 7.00; under `C[C@@H]1CCCN1C1(C)CCc2ccc(-c3cnc4[nH]nc(-c5ccc(S(=O)(=O)C6CCC6)cc5)c4c3)cc2CC1` (stereo partly drawn) [Example 46, 3-(4-(Cyclobutylsulfonyl)phenyl)-5-(7-methyl-7-((R)-2-methylpyrrolidin-1-yl)-6,7,8,9-tetrahydro-5H-benzo[7]annulen-2-yl)-1H-pyrazolo[3,4-b]pyridine], 6.00 to 7.00; under `Cc1cc(-c2n[nH]c3ncc(-c4ccc5c(c4)CCC(N4CCCC4)CC5)cc23)ccc1C(=O)N1CCNCC1` (centres unmarked) [Example 47, 1-(2-Methyl-4-{5-[7-(pyrrolidin-1-yl)-6,7,8,9-tetrahydro-5H-benzo[7]annulen-2-yl]-1H-pyrazolo[3,4-b]pyridin-3-yl}benzoyl)piperazine], more than 7.00.
The figure for `Cc1cc(-c2n[nH]c3ncc(-c4ccc5c(c4)CCN(C(=O)C(C)C)CC5)cc23)ccc1C(=O)N1CCNCC1` [Example 48, 2-Methyl-1-(7-{3-[3-methyl-4-(piperazine-1-carbonyl)phenyl]-1H-pyrazolo[3,4-b]pyridin-5-yl}-2,3,4,5-tetrahydro-1H-3-benzazepin-3-yl)propan-1-one] is 6.00 to 7.00.
In the case of `Cc1cc(-c2n[nH]c3ncc(-c4ccc5c(c4)CC[C@@H](N4CCCC4)CC5)cc23)cc(C)c1C(N)=O` [Example 49, 2,6-Dimethyl-4-{5-[(7S)-7-(pyrrolidin-1-yl)-6,7,8,9-tetrahydro-5H-benzo[7]annulen-2-yl]-1H-pyrazolo[3,4-b]pyridin-3-yl}benzamide], the pIC50 was more than 7.00.
In turn, `Cc1cc(-c2n[nH]c3ncc(-c4ccc5c(c4)CC[C@@H](N4CCCC4)CC5)cc23)cc(Cl)c1C(N)=O` [Example 50, 2-Chloro-6-methyl-4-{5-[(7S)-7-(pyrrolidin-1-yl)-6,7,8,9-tetrahydro-5H-benzo[7]annulen-2-yl]-1H-pyrazolo[3,4-b]pyridin-3-yl}benzamide] had a negative logarithm of the IC50 (pIC50) of more than 7.00.
Under `C[C@@H]1CCCN1C1(C)CCc2ccc(-c3cnc4[nH]nc(-c5ccc(C(N)=O)c(F)c5)c4c3)cc2CC1` (stereo partly drawn) [Example 52, 2-Fluoro-4-(5-(7-methyl-7-((R)-2-methylpyrrolidin-1-yl)-6,7,8,9-tetrahydro-5H-benzo[7]annulen-2-yl)-1H-pyrazolo[3,4-b]pyridin-3-yl)benzamide] stands more than 7.00; under `COc1cc(-c2n[nH]c3ncc(-c4ccc5c(c4)CCC(C)(N4CCC[C@H]4C)CC5)cc23)ccc1C(N)=O` (stereo partly drawn) [Example 53, 2-Methoxy-4-(5-(7-methyl-7-((R)-2-methylpyrrolidin-1-yl)-6,7,8,9-tetrahydro-5H-benzo[7]annulen-2-yl)-1H-pyrazolo[3,4-b]pyridin-3-yl)benzamide], more than 7.00.
Under `C[C@@H]1CCCN1C1(C)CCc2ccc(-c3cnc4[nH]nc(-c5ccc(C(N)=O)cc5)c4c3)cc2CC1` (stereo partly drawn) [Example 54, 4-(5-(7-Methyl-7-((R)-2-methylpyrrolidin-1-yl)-6,7,8,9-tetrahydro-5H-benzo[7]annulen-2-yl)-1H-pyrazolo[3,4-b]pyridin-3-yl)benzamide] stands more than 7.00.
